The source of these data is article PMC8962522, “Direct interaction of TrkA/CD44v3 is essential for NGF-promoted aggressiveness of breast cancer cells” (Journal of Experimental & Clinical Cancer Research : CR, 2022).

Entries after “also recorded” stand apart in the source; their conditions may differ.

For one test, the system named is TrkA phosphorylation. The test can be described thus: Western blot of TrkA phosphorylation. Type of test: cell-based. The source says:
To further elucidate the mechanism of action of CD44v3 mimetic peptide 4, we studied its effect on the TrkA signaling pathway. First, we performed western blot analysis to determine the effect of mimetic peptide 4 on TrkA phosphorylation (Fig. 5A). […] Therefore, we performed acceptor (photo) bleaching (AB)-FRET to examine the effect of CD44v3 mimetic peptide 4 on NGF-induced RhoA activity in MDA-MB-231 cells transfected with a RhoA FRET biosensor [18] (Fig. 5B). […] Additionally, to confirm that this effect was independent of TrkA phosphorylation, we measured RhoA activation in MDA-MB-231 cells expressing dead TrkA kinase, which cannot be phosphorylated (Fig. 5D). […] Furthermore, a similar decrease in RhoA activation was obtained using the TrkA-H112A mutation, which also prevents the formation of the TrkA/CD44v3 complex in the absence or presence of the TrkA kinase inhibitor k252A (Supplementary Fig. 11B & C, Supplementary Video 1 & 2).
Fig. 5 CD44v3 is implicated in the phospho-TrkA-independent activation of RhoA GTPase. Phosphorylation of TrkA was measured in the presence of a scramble peptide or CD44v3 mimetic peptide 4 (P4) in the presence or absence of NGF (A). Schematic representation of the Rho biosensor; (B). […] Phosphorylation of TrkA and downstream Akt in wild-type MDA-MB-231 and MDA-MB-231 cells expressing kinase-dead TrkA, as determined by western blotting (D). […]

In test [1] the test system is RhoA in MDA-MB-231 cells expressing kinase-dead TrkA. In words: Ratiometric FRET RhoA activation, kinase-dead TrkA cells. Type of test: cell-based. Conditions: for relocation of activated RhoA to the migration front / local RhoA activation, in words: 25 min NGF, relocation observed with scramble peptide. How it is done: MDA-MB-231 native or KD cells were seeded (5000 cells/well; ovn, 37 °C) in a chambered coverglass system (Lab-Tek®) coated with a type I collagen matrix (100 μg/mL; Corning). These cells were transfected using the pBabe-puro-RhoA plasmid (0.15 μg; Addgene plasmid #12602) diluted in a buffer solution (JetOPTIMUS® buffer) and a transfection agent (TA; 10 min). The mixture was incorporated into the culture medium (4 h; 37 °C). Two to three hours before image acquisition, the cells expressing the RhoA biosensor were starved in fresh EMEM containing 0.1% FBS and no phenol red. During image acquisition, the cells were maintained at 37 °C and with 5% CO2 in an incubation chamber installed under a microscope. Images were collected using a ZEISS LSM 880 confocal microscope with a plan-apochromat 63×/1.4 oil differential interference contrast (DIC) objective. The argon laser was tuned to emit 458 nm and 514 nm laser lines through a 470 to 500 nm bandpass emission filter (BP470–500) for CFP detection and a 530 nm longpass emission filter (LP530) for YFP detection. The emission of the CFP, FRET and YFP channels was recorded. The fluorescence emission ratios were computed using ImageJ software, which was also used to generate a report showing the FRET efficiency and intensity signal for each channel.
To further elucidate the mechanism of action of CD44v3 mimetic peptide 4, we studied its effect on the TrkA signaling pathway. […] Additionally, to confirm that this effect was independent of TrkA phosphorylation, we measured RhoA activation in MDA-MB-231 cells expressing dead TrkA kinase, which cannot be phosphorylated (Fig. 5D). […]
Fig. 5 CD44v3 is implicated in the phospho-TrkA-independent activation of RhoA GTPase. Phosphorylation of TrkA was measured in the presence of a scramble peptide or CD44v3 mimetic peptide 4 (P4) in the presence or absence of NGF (A). […] Phosphorylation of TrkA and downstream Akt in wild-type MDA-MB-231 and MDA-MB-231 cells expressing kinase-dead TrkA, as determined by western blotting (D). […]

Test [2] has as its system CD44v3 (CD44v3-His, whole cell extracts of COS-7 cells expressing CD44v3). The test can be described thus: MST binding of NGF, TrkA or FGF to CD44v3. As to conditions: whole cell extracts of COS-7 expressing CD44v3, NGF alone, TrkA alone or FGF control. How it is done:
MST was conducted using an NT.115 A Pico MST instrument (Nano Temper Technologies GmbH) equipped with red and blue filter sets. The TrkA-His tagged extracellular domain protein (Ala 34-Gly423) (9966-TK-050; R&D Systems, United Kingdom), diluted to 200 nM in PBS-T buffer (supplied by the vendor), was labeled using a Monolith His-Tag Labeling Kit with RED-Tris-NTA (Nano Temper). The RED-Tris-NTA dye was diluted in PBS-T to 100 nM. The mix was incubated at RT in the dark for 30 min. Next, an extract expressing CD44v3-labeled protein (CD44v3-His) and ligand and/or TrkA was mixed at a 1:1 ratio and incubated at RT in the dark for 15 min. For the binding check, peptides and TrkA-His were used. Capillaries were filled individually and loaded into the instrument. The data were acquired using high MST power and 100% LED. The data were analyzed using MO Control Software (Nano Temper).
Fig. 1 The C-terminal region of CD44 variant 3 binds to TrkA. A Schematic representation of the CD44 gene and protein structure. Alternative splicing leads to the expression of CD44 variants, thus the insertion of exon 8 leads to the expression of a CD44 protein containing variant 3 (CD44v3) and the insertion of exon 11 leads to the expression of a CD44 containing variant 6 (CD44v6) (B) TrkA/CD44v3 complex formation in COS-7 cells expressing TrkA and CD44v3 was detected by the proximity ligation assay (PLA), which was performed 0, 5 and 30 min after the initiation of NGF (100 ng/ml) treatment. The images represent signals detected by PLA. Quantification of the red spots was performed by ImageJ software (30 randomly chosen fields per condition of three different experiments). Statistical analyses were performed using one-way ANOVA followed by Bonferroni’s posttest. Error bars represent the standard error of the mean (S.E.M.); *** p < 0.001. ns, nonsignificant. C NGF and/or TrkA binding to CD44v3 was measured by microscale thermophoresis (MST). MST experiments were performed on whole cell extracts of COS-7 cells expressing CD44v3. […]

Consider “IDDDEDFISST [Peptide 4, mimetic peptide 4 (…) corresponding to the C-terminal region of CD44v3]”, for which the “effect on NGF-induced TrkA phosphorylation” value in the test on TrkA phosphorylation was “did not inhibit TrkA phosphorylation induced by NGF”. In addition, the “relocation of activated RhoA to the migration front / local RhoA activation, in words” value in test [1] (not with peptide 4, listed as CD44v3 mimetic peptide 4) was “relocation of activated RhoA to the migration front of the control cells with the scramble peptide after 25 min of NGF treatment but not with CD44v3 mimetic peptide 4”; in test [1] (not with peptide 4, listed as P4), “impedes local RhoA activation independent of TrkA phosphorylation”. Further, in test [1] (45 min NGF, statement: increased with scramble peptide, not with peptide 4), the “NGF-induced increase in proportion of active RhoA, in words” value was “NGF increased the proportion of active RhoA after 45 min in the presence of the scramble peptide (Fig. 5E) but not CD44v3 mimetic peptide 4”.

Take “NGF: recombinant human β-NGF (Alomone Labs, Israel)”: in test [2], the “binding to CD44v3 (in words)” value is given as “No binding; also recorded: NGF did not bind to CD44v3; also recorded: NGF does not bind to CD44v3”.
